Test results published in ChEMBL document CHEMBL5550087, “Development of tenofovir monobenzyl ester phosphonoamidate prodrugs with improved anti-hepatitis B virus activity and intrahepatic tenofovir enrichment” (Bioorg Med Chem, 2024).
Blank lines part the entries; values can stand above or below the compound they belong to.

Key:
[1] = Drug uptake in ICR mouse liver at 50 mg/kg, ig measured after 3 hrs by LC-MS/MS analysis; format: ADME, organism-based; details: po, read-out: Drug uptake
[2] = Plasma concentration in ICR mouse at 50 mg/kg, ig measured after 3 hrs by LC-MS/MS analysis; format: ADME, organism-based; details: po
[3] = Ratio of drug level in ICR mouse liver to plasma at 50 mg/kg, ig measured after 3 hrs by LC-MS/MS analysis; format: ADME, organism-based; details: liver and plasma, po
[4] = Drug metabolism in ICR mouse liver assessed as ratio of tenofovir level to parent compound level at 50 mg/kg, ig measured after 3 hrs by LC-MS/MS analysis; format: ADME, organism-based; details: in vivo, po
[5] = Drug metabolism in ICR mouse plasma assessed as ratio of tenofovir level to parent compound level at 50 mg/kg, ig measured after 3 hrs by LC-MS/MS analysis; format: ADME, organism-based; details: in vivo, po
[6] = Drug metabolism in ICR mouse liver assessed as tenofovir metabolite level at 50 mg/kg, ig measured after 3 hrs by LC-MS/MS analysis; format: ADME, organism-based; details: in vivo, po
[7] = Drug metabolism in ICR mouse plasma assessed as tenofovir metabolite level at 50 mg/kg, ig measured after 3 hrs by LC-MS/MS analysis; format: ADME, organism-based; details: in vivo, po
[8] = Drug metabolism in ICR mouse assessed as ratio of tenofovir metabolite level in liver to plasma at 50 mg/kg, ig measured after 3 hrs by LC-MS/MS analysis; format: ADME, organism-based; details: other tissue, po
[9] = test system: Hepatitis B virus; assay: Antiviral activity against Hepatitis B virus infected in human HepG2.2.15 cells assessed as inhibition of viral DNA replication treated from day 2 to day 8 by real time fluorescence qPCR analysis; format: functional, organism-based
[10] = Cytotoxicity against human HepG2.2.15 cells assessed as reduction in cell viability treated from day 2 to day 8 by CellTiter-Blue reagent based fluorescence analysis; format: toxicity, HepG2 2.2.15; details: time 6 day
[11] = Stability of the compound in simulated gastric fluid at 10 uM incubated at 37 degC for upto 1440 mins by LC-MS/MS analysis; format: ADME; details: simulated gi fluid, 24 h
[12] = Stability of the compound in simulated intestinal fluid at 10 uM incubated at 37 degC for upto 1440 mins by LC-MS/MS analysis; format: ADME; details: simulated gi fluid, 24 h
[13] = Stability of the compound in human plasma at 2 uM incubated for upto 120 mins by LC-MS/MS analysis; format: ADME, cell-free; details: 2 h
[14] = Drug metabolism in human liver S9 fraction assessed as tenofovir metabolite formation at 1 uM incubated for upto 60 mins by LC-MS/MS analysis; format: ADME, subcellular; details: s9, 1 h
[15] = biological target: Voltage-gated inwardly rectifying potassium channel KCNH2 (Homo sapiens, UniProt Q12809); assay: Inhibition of hERG expressed in CHO cells assessed as inhibition of channel current measured at holding potential of -80 mV by whole cell patch clamp analysis; format: toxicity, cell-based
[16] = Mutagenicity in Salmonella typhimurium TA98 assessed as revertant colonies at 1.5 to 1000 ug/well incubated for 66.5 hrs in the dark by mini-Ames test; format: toxicity; details: salmonella enterica subsp. enterica serovar typhimurium, dose 1.5-1000 µg
[17] = Mutagenicity in Salmonella typhimurium TA98 assessed as revertant colonies at 1.5 to 1000 ug/well incubated for 66.5 hrs in the dark in presence of S9 fraction by mini-Ames test; format: toxicity, subcellular; details: salmonella enterica subsp. enterica serovar typhimurium, s9, 66.5 h, dose 1.5-1000 µg
[18] = Mutagenicity in Salmonella typhimurium TA100 assessed as revertant colonies at 1.5 to 1000 ug/well incubated for 66.5 hrs in the dark by mini-Ames test; format: toxicity; details: salmonella enterica subsp. enterica serovar typhimurium, dose 1.5-1000 µg
[19] = Mutagenicity in Salmonella typhimurium TA100 assessed as revertant colonies at 1.5 to 1000 ug/well incubated for 66.5 hrs in the dark in presence of S9 fraction by mini-Ames test; format: toxicity, subcellular; details: salmonella enterica subsp. enterica serovar typhimurium, s9, 66.5 h, dose 1.5-1000 µg
[20] = Drug metabolism in Sprague-Dawley rat assessed as terminal elimination half life of tenofovir metabolite at 5 mg/kg, iv measured for 24 hrs by LC-MS/MS analysis; format: ADME, organism-based; details: in vivo
[21] = Drug metabolism in Sprague-Dawley rat assessed as clearance of tenofovir metabolite at 5 mg/kg, iv measured for 24 hrs by LC-MS/MS analysis; format: ADME, organism-based; details: in vivo
[22] = Drug metabolism in Sprague-Dawley rat assessed as volume of distribution of tenofovir metabolite at 5 mg/kg, iv measured for 24 hrs by LC-MS/MS analysis; format: ADME, organism-based; details: in vivo
[23] = Drug metabolism in Sprague-Dawley rat assessed as MRT(0 to t) of tenofovir metabolite at 5 mg/kg, iv measured for 24 hrs by LC-MS/MS analysis; format: ADME, organism-based; details: in vivo
[24] = Drug metabolism in Sprague-Dawley rat assessed as terminal elimination half life of tenofovir metabolite at 25 mg/kg, ig measured for 24 hrs by LC-MS/MS analysis; format: ADME, organism-based; details: in vivo, po
[25] = Drug metabolism in Sprague-Dawley rat assessed as Tmax of tenofovir metabolite at 25 mg/kg, ig measured for 24 hrs by LC-MS/MS analysis; format: ADME, organism-based; details: in vivo, po
[26] = Drug metabolism in Sprague-Dawley rat assessed as Cmax of tenofovir metabolite at 25 mg/kg, ig measured for 24 hrs by LC-MS/MS analysis; format: ADME, organism-based; details: in vivo, po
[27] = Drug metabolism in Sprague-Dawley rat assessed as bioavailability of tenofovir metabolite at 25 mg/kg, ig measured for 24 hrs by LCMS/MS analysis; format: ADME, organism-based; details: in vivo, po
[28] = Drug metabolism in Sprague-Dawley rat plasma assessed as terminal elimination half life of tenofovir metabolite at 25 mg/kg, ig measured for 12 hrs by LC-MS/MS analysis; format: ADME, organism-based; details: in vivo, po
[29] = Drug metabolism in Sprague-Dawley rat liver assessed as terminal elimination half life of tenofovir metabolite at 25 mg/kg, ig measured for 12 hrs by LC-MS/MS analysis; format: ADME, organism-based; details: in vivo, po
[30] = Drug metabolism in Sprague-Dawley rat kidney assessed as terminal elimination half life of tenofovir metabolite at 25 mg/kg, ig measured for 12 hrs by LC-MS/MS analysis; format: ADME, organism-based; details: in vivo, po
[31] = Drug metabolism in Sprague-Dawley rat plasma assessed as Tmax of tenofovir metabolite at 25 mg/kg, ig measured for 12 hrs by LC-MS/MS analysis; format: ADME, organism-based; details: in vivo, po
[32] = Drug metabolism in Sprague-Dawley rat liver assessed as Tmax of tenofovir metabolite at 25 mg/kg, ig measured for 12 hrs by LC-MS/MS analysis; format: ADME, organism-based; details: in vivo, po
[33] = Drug metabolism in Sprague-Dawley rat kidney assessed as Tmax of tenofovir metabolite at 25 mg/kg, ig measured for 12 hrs by LC-MS/MS analysis; format: ADME, organism-based; details: in vivo, po
[34] = Drug metabolism in Sprague-Dawley rat plasma assessed as Cmax of tenofovir metabolite at 25 mg/kg, ig measured for 12 hrs by LC-MS/MS analysis; format: ADME, organism-based; details: in vivo, po
[35] = Drug metabolism in Sprague-Dawley rat liver assessed as Cmax of tenofovir metabolite at 25 mg/kg, ig measured for 12 hrs by LC-MS/MS analysis; format: ADME, organism-based; details: in vivo, po
[36] = Drug metabolism in Sprague-Dawley rat kidney assessed as Cmax of tenofovir metabolite at 25 mg/kg, ig measured for 12 hrs by LC-MS/MS analysis; format: ADME, organism-based; details: in vivo, po

Sequence of Voltage-gated inwardly rectifying potassium channel KCNH2 (Q12809 whole entry): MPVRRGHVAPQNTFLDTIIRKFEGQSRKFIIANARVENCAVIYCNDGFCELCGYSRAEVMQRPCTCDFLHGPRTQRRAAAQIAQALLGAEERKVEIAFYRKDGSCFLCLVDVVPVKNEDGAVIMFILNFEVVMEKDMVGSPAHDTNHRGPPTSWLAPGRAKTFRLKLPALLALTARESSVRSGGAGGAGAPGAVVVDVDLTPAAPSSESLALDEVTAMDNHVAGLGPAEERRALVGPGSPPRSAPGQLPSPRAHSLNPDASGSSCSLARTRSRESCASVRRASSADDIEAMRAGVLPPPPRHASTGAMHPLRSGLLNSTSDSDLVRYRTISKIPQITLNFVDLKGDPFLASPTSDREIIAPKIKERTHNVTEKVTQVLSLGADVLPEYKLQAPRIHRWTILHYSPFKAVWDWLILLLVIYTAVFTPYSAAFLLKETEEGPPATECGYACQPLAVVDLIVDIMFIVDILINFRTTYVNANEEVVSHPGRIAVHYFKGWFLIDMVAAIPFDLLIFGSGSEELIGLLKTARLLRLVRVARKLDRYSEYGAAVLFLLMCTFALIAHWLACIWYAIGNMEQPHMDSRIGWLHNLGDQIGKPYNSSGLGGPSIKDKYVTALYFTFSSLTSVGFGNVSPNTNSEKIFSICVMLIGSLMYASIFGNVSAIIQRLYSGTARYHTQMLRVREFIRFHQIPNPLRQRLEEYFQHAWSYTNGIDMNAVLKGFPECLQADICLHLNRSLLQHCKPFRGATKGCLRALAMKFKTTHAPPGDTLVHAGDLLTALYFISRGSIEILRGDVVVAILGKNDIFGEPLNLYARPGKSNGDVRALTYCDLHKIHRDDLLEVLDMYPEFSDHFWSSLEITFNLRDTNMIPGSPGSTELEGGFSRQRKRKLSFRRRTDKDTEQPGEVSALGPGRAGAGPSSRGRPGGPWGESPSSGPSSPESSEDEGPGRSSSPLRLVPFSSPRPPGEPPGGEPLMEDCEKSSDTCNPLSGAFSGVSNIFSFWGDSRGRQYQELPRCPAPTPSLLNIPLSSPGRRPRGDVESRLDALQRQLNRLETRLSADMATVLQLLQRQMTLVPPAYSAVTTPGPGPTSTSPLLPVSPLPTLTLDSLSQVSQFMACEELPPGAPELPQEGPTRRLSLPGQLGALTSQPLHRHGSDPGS

Compound: CC(C)OC(=O)[C@H](C)NP(=O)(CO[C@H](C)Cn1cnc2c(N)ncnc21)OCc1ccccc1 (some centres not stated)
concentration at 3 h [1]: 375 nM
concentration at 3 h [2]: 104 nM
Kp at 3 h [3]: 3.61
Ratio [4]: 166
Ratio [5]: 0.72
Drug metabolism [6]: 67.251 nmol/mL
Drug metabolism [7]: 0.075 nmol/mL
Ratio [8]: 896

Compound: CC(C)OC(=O)CNP(=O)(CO[C@H](C)Cn1cnc2c(N)ncnc21)OCc1ccccc1 (single isomer, unassigned; 1a)
EC50 [9]: > 1 µM
CC50 at 144 h [10]: > 100 µM

Compound: C[C@H](Cn1cnc2c(N)ncnc21)OCP(=O)(NCC(=O)Oc1ccccc1)OCc1ccccc1 (single isomer, unassigned; 4a)
EC50 [9]: 0.214 µM
CC50 at 144 h [10]: > 100 µM

Compound: Cc1ccccc1COP(=O)(CO[C@H](C)Cn1cnc2c(N)ncnc21)N[C@@H](C)C(=O)OC(C)C (single isomer, unassigned; 5b)
EC50 [9]: 0.275 µM
CC50 at 144 h [10]: > 100 µM
IC50 [15]: > 10 µM

Compound: CC(C)OC(=O)[C@H](C)N[P@](=O)(CO[C@H](C)Cn1cnc2c(N)ncnc21)Oc1ccccc1 [TENOFOVIR ALAFENAMIDE]
EC50 [9]: 0.0178 µM
CC50 at 144 h [10]: > 100 µM
Drug metabolism [14]: Metabolite_Detected
IC50 [15]: > 10 µM
t1/2 [20]: 4.59 h
CL [21]: 42.8 mL/min/kg
Vd [22]: 16.1 L/kg
MRT(t) [23]: 1.67 h
t1/2 [24]: 5.46 h
Tmax [25]: 0.375 h
Cmax [26]: 1370 ng/mL
F [27]: 27.7%
t1/2 [28]: 4.44 h
t1/2 [29]: 6.2 h
t1/2 [30]: 5.2 h
Tmax [31]: 0.25 h
Tmax [32]: 0.25 h
Tmax [33]: 0.25 h
Cmax [34]: 4027 ng/mL
Cmax [35]: 29820 ng/mL
Cmax [36]: 16471 ng/mL

Continued, in another order:

EC50 [9]: 0.29 µM
Compound: CC(C)OC(=O)CNP(=O)(CO[C@H](C)Cn1cnc2c(N)ncnc21)OCc1ccccc1 (single isomer, unassigned; 1b)
CC50 at 144 h [10]: > 100 µM

EC50 [9]: 0.418 µM
Compound: COC(=O)CNP(=O)(CO[C@H](C)Cn1cnc2c(N)ncnc21)OCc1ccccc1 (single isomer, unassigned; 2a)
CC50 at 144 h [10]: > 100 µM

EC50 [9]: > 1 µM
Compound: COC(=O)CNP(=O)(CO[C@H](C)Cn1cnc2c(N)ncnc21)OCc1ccccc1 (single isomer, unassigned; 2b)
CC50 at 144 h [10]: > 100 µM

EC50 [9]: 0.00339 µM
Stability [11]: Stable
Stability [12]: Stable
Stability [13]: Stable
Drug metabolism [14]: Metabolite_Detected
t1/2 [20]: 2.89 h
CL [21]: 348 mL/min/kg
Vd [22]: 86.6 L/kg
MRT(t) [23]: 0.921 h
t1/2 [24]: 10.7 h
Tmax [25]: 0.147 h
Cmax [26]: 98.35 ng/mL
F [27]: 32.7%
t1/2 [28]: 6.58 h
t1/2 [29]: 6.77 h
t1/2 [30]: 322 h
Tmax [31]: 0.25 h
Tmax [32]: 0.25 h
Tmax [33]: 0.25 h
Cmax [34]: 279 ng/mL
Cmax [35]: 10589 ng/mL
Cmax [36]: 3234 ng/mL
Compound: CC(C)OC(=O)[C@H](C)NP(=O)(CO[C@H](C)Cn1cnc2c(N)ncnc21)OCc1ccccc1 (single isomer, unassigned; 3a)
CC50 at 144 h [10]: > 100 µM
IC50 [15]: > 10 µM
Activity [16]: Non-Toxic
Activity [17]: Non-Toxic
Activity [18]: Non-Toxic
Activity [19]: Non-Toxic

EC50 [9]: 0.006 µM
Stability [11]: Stable
Stability [12]: Stable
Stability [13]: Stable
Drug metabolism [14]: Metabolite_Detected
t1/2 [20]: 2 h
CL [21]: 435 mL/min/kg
Vd [22]: 67.4 L/kg
MRT(t) [23]: 0.489 h
t1/2 [24]: 2.84 h
Tmax [25]: 0.375 h
Cmax [26]: 143 ng/mL
F [27]: 31.5%
t1/2 [28]: 6.56 h
t1/2 [29]: 10.7 h
t1/2 [30]: 26.2 h
Tmax [31]: 0.25 h
Tmax [32]: 0.25 h
Tmax [33]: 0.25 h
Cmax [34]: 216 ng/mL
Cmax [35]: 10557 ng/mL
Cmax [36]: 4663 ng/mL
Compound: CC(C)OC(=O)[C@H](C)NP(=O)(CO[C@H](C)Cn1cnc2c(N)ncnc21)OCc1ccccc1 (single isomer, unassigned; 3b)
CC50 at 144 h [10]: > 100 µM
IC50 [15]: > 30 µM
Activity [16]: Non-Toxic
Activity [17]: Non-Toxic
Activity [18]: Non-Toxic
Activity [19]: Non-Toxic

EC50 [9]: 0.848 µM
Compound: C[C@H](Cn1cnc2c(N)ncnc21)OCP(=O)(NCC(=O)Oc1ccccc1)OCc1ccccc1 (single isomer, unassigned; 4b)
CC50 at 144 h [10]: > 100 µM

EC50 [9]: > 1 µM
Compound: Cc1ccccc1COP(=O)(CO[C@H](C)Cn1cnc2c(N)ncnc21)N[C@@H](C)C(=O)OC(C)C (single isomer, unassigned; 5a)
CC50 at 144 h [10]: > 100 µM
